Here are results for 7 compounds from article PMC4982551 (MedChemComm, 2016).

Molecules are shown by their SMILES.

In the assay the test system is selected panel of PTPs (mPTPB, SHP2, PTP1B, CD45, LYP, FAP-1). Description: PTP activity assay, selected panel of PTPs. In kind it is biochemical. The settings on record: pH 7, 25 °C.
For `O=C(COc1ccc2cc(C(O)(C(F)(F)F)C(F)(F)F)c(O)cc2c1)NCCc1ccc(Cl)cc1Cl` [7h], the “PTP inhibitory activity (in words)” value was “moderate activities”.
Regarding `Cc1ccc(O)c(C(O)(C(F)(F)F)C(F)(F)F)c1` [1b], the “PTP inhibitory activity (in words)” value is listed as “moderate activity”.
The entry for `OC(c1ccccc1)(C(F)(F)F)C(F)(F)F` [1a] is “No appreciable activity”; for `O=C(COc1ccc2cc(C(O)(C(F)(F)F)C(F)(F)F)c(O)cc2c1)NC1c2ccccc2-c2ccccc21` [7i] it is “moderate activities”.
For `Oc1cc2ccccc2cc1C(O)(C(F)(F)F)C(F)(F)F` [1f] the value was “the most potent one”; for `O=C(COc1ccc2cc(C(O)(C(F)(F)F)C(F)(F)F)c(O)cc2c1)NC12CC3CC(CC(C3)C1)C2` [7d], “moderate activities”.
Take `O=C(COc1ccc2cc(C(O)(C(F)(F)F)C(F)(F)F)c(O)cc2c1)N1c2ccccc2Sc2ccccc21` [7p]: the “PTP inhibitory activity (in words)” value is recorded as “very high activity”.
